Reference: patent US10206902B2, “Mono- or di-substituted indoles as dengue viral replication inhibitors” (priority 2014, dated 2019)

Key:
[1] = Chiral stability of Enantiomer 1A at pH 7.4 (ee% by chiral SFC); type: physicochemical; conditions: buffered solution pH 7.4, 5 μM
Description: The chiral stability of Enantiomer 1A (R═OMe) was evaluated by determination of the enantiomeric excess (ee %) after incubation for 24 h and 48 h in a buffered solution at pH 7.4 at 40° C. and 60° C. To assess the influence of the methoxy-substituent of Enantiomer 1A (R═OMe) on the stability against racemization, the chiral stability of Enantiomer 1′A (R═H) was tested under the same conditions.
To this end, 5 μM buffered (pH=7.4) solutions of 1A and 1′A were prepared by mixing 25 μL of a 100 μM solution of 1A or 1′A in DMSO with 475 μL aqueous buffer pH 7.4. Samples were taken 24 h and 48 h after incubation at 40° C. and 60° C. The analytical samples were analyzed by Chiral SFC (MS detection) and the chiral purity was expressed as the enantiomeric excess (ee %=% enantiomer A−% enantiomer B).

in vitro [2] = type: cell-based; conditions: African green monkey
Description: The antiviral activity of the compounds of the invention was tested against DENV-1 strain TC974#666 (NCPV), DENV-2 strain 16681, DENV-3 strain H87 (NCPV) and DENV-4 strains H241 (NCPV) and EDEN (SG/06K2270DK1/2005; GenBank accession number QG398256) in a RT-qPCR assay. Therefore, Vero cells were infected with either DENV-1, or -2, or -3, or -4 in the presence or absence of test compounds. At day 3 post-infection, the cells were lysed and cell lysates were used to prepare cDNA of both a viral target (the 3′UTR of DENV; table 2) and a cellular reference gene (β-actin, table 2). Subsequently, a duplex real time PCR was performed on a Lightcycler480 instrument. The generated Cp value is inversely proportional to the amount of RNA expression of these targets. Inhibition of DENV replication by a test compound result in a shift of Cp's for the 3′UTR gene. On the other hand, if a test compound is toxic to the cells, a similar effect on β-actin expression will be observed. The comparative ΔΔCp method is used to calculate EC50, which is based on the relative gene expression of the target gene (3′UTR) normalized with the cellular housekeeping gene (β-actin). In addition, CC50 values were determined based on the Cp values acquired for the housekeeping gene β-actin.
The culture medium consisted of minimal essential medium supplemented with 2% of heat-inactivated fetal calf serum, 0.04% gentamycin (50 mg/mL) and 2 mM of L-glutamine. Vero cells, obtained from ECACC, were suspended in culture medium and 75 μL/well was added in 96-well plates (10000 cells/well), which already contain the antiviral compounds. Typically, these plates contain a 4-fold serial dilution of 9 dilution steps of the test compound at 200 times the final concentration in 100% DMSO (500 nL; final concentration range: 25 μM-0.00038 μM). In addition, each plate contains wells which are assigned as virus controls (containing cells and virus in the absence of compound) and cell controls (containing cells in the absence of virus and compound). Once the cells were added in the plates, the plates were incubated in a fully humidified incubator (37° C., 5% CO2) until the next day. Then, DENV-1 strain TC974#666, DENV-2 strain 16681, DENV-3 strain H87 or DENV-4 strains H241 or EDEN were added. […] In parallel, 25 μL of culture medium was added to the cell controls. Next, the plates were incubated for 3 days in a fully humidified incubator (37° C., 5% CO2). After 3 days, the supernatant was removed from the wells and the cells were washed twice with ice-cold PBS (˜100 μL). The cell pellets within the 96-well plates were stored at −80° C. for at least 1 day. Next, RNA was extracted using the Cells-to-CT™ lysis kit, according to the manufacture's guideline (Applied Biosystems). The cell lysates can be stored at −80° C. or immediately used in the reverse transcription step. In preparation of the reverse transcription step, mix A (table 3A) was prepared and 7.57 μL/well was dispensed in a 96-well plate. After addition of 5 μL of the cell lysates, a five minute denaturation step at 75° C. was performed (table 3B). Afterwards, 7.43 μL of mix B was added (table 3C) and the reverse transcription step was initiated (table 3D) to generate cDNA.
Finally, a RT-qPCR mix was prepared, mix C (table 4A), dispensed in 96-well LightCycler qPCR plates to which 3 μL of cDNA was added and the qPCR was performed according to the conditions in table 4B on a LightCycler 480. Using the LightCycler software and an in-house LIMS system, dose response curves for each compound were calculated and the half maximal effective concentration (EC50) and the half maximal cytotoxic concentration (CO50) were determined (Tables 6-9).

uninfected Vero cells = assay: in vitro; type: cell-based; conditions: African green monkey
Description: Potential cytotoxic effects of the compounds were evaluated in uninfected Vero cells. Cells were seeded at 4×10^4 cells/well in a 96-well plate in the presence of two-, three- or five-fold serial dilutions (ranging from 50 μg/mL-0.0038 μg/mL, 50 μg/mL-0.0076 μg/mL, and 50 μg/mL-0.00013 μg/mL, respectively) of compound and incubated for 4 to 7 days. Culture medium was discarded and 100 μL 3-(4,5-dimethylthiazol-2-yl)-5-(3-carboxymethoxyphenyl)-2-(4-sulfophenyl)-2H-tetrazolium/phenazinemethosulfate (MTS/PMS; Promega, Leiden, The Netherlands) in PBS was added to each well. Following a 2-hour incubation period at 37° C., the optical density was determined at 498 nm. Cytotoxic activity was calculated using the following formula: % cell viability=100×(ODCompound/ODCC), where ODcompound and ODCC correspond to the optical density at 498 nm of the uninfected cell cultures treated with compound and that of uninfected, untreated cell cultures, respectively. The 50% cytotoxic concentration (i.e., the concentration that reduces the total cell number with 50%; CC50) was calculated using linear interpolation (Tables 7 and 8).

in vitro [3] = type: cell-based; conditions: African green monkey, CC50
Outline: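 Cytotoxicity read on the same Vero plates after the eGFP read-out: resazurin added, incubated a further 5 h at 37° C, 5% CO2, fluorescence read at 530 nm excitation. CC50 is the concentration reducing resazurin conversion by 50% versus cell-control wells; SI = CC50/EC50.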

SMILES: COc1cc(NC(C(=O)c2c[nH]c3cc(F)ccc23)c2ccc(F)cc2OC)cc(OCCO)c1 (single isomer, unassigned) [Compound 1A, 1-(6-fluoro-1H-indol-3-yl)-2-(4-fluoro-2-methoxyphenyl)-2-((3-(2-hydroxyethoxy)-5-methoxyphenyl)amino)ethanone]
- ee% (enantiomeric excess) ([1]; 40° C., 24 h): 100%
- ee% (enantiomeric excess) ([1]; 40° C., 48 h): 100%
- ee% (enantiomeric excess) ([1]; 60° C., 24 h): 100%
- ee% (enantiomeric excess) ([1]; 60° C., 48 h): 96%

SMILES: COc1cc(NC(C(=O)c2c[nH]c3c(C)c(F)ccc23)c2ccc(F)cc2OC)cc(OCCO)c1 (single isomer, unassigned) [Compound 2B, 2-(4-fluoro-2-methoxyphenyl)-1-(6-fluoro-7-methyl-1H-indol-3-yl)-2-((3-(2-hydroxyethoxy)-5-methoxyphenyl)amino)ethanone]
- CC50 at 3 days (in vitro [2]): 3.6 µM
- CC50 (uninfected Vero cells): 15 µM

SMILES: COc1cc(NC(C(=O)c2c[nH]c3c(C)c(Cl)ccc23)c2ccc(F)cc2OC)cc(OCCO)c1 (single isomer, unassigned) [Compound 3A, 1-(6-chloro-7-methyl-1H-indol-3-yl)-2-(4-fluoro-2-methoxyphenyl)-2-((3-(2-hydroxyethoxy)-5-methoxyphenyl)amino)ethanone]
- CC50 at 3 days (in vitro [2]): 4.1 µM
- CC50 (uninfected Vero cells): 13 µM

SMILES: COc1cc(NC(C(=O)c2c[nH]c3cc(Cl)ccc23)c2ccc(F)cc2OC)cc(OCCO)c1 (single isomer, unassigned) [Compound 4A, 1-(6-chloro-1H-indol-3-yl)-2-(4-fluoro-2-methoxyphenyl)-2-((3-(2-hydroxyethoxy)-5-methoxyphenyl)amino)ethanone]
- CC50 (uninfected Vero cells): 18 µM

SMILES: COc1cc(NC(C(=O)c2c[nH]c3c(F)c(F)ccc23)c2ccc(F)cc2OC)cc(OCCO)c1 (single isomer, unassigned) [Compound 5B, 1-(6,7-difluoro-1H-indol-3-yl)-2-(4-fluoro-2-methoxyphenyl)-2-((3-(2-hydroxyethoxy)-5-methoxyphenyl)amino)ethanone]
- CC50 (uninfected Vero cells): 11 µM

SMILES: COc1cc(NC(C(=O)c2c[nH]c3cc(OC)c(C)cc23)c2ccc(F)cc2OC)cc(OCCO)c1 (single isomer, unassigned) [Compound 6A, 2-(4-fluoro-2-methoxyphenyl)-2-((3-(2-hydroxyethoxy)-5-methoxyphenyl)amino)-1-(6-methoxy-5-methyl-1H-indol-3-yl)ethanone]
- CC50 (uninfected Vero cells): 17 µM
- CC50 (in vitro [3]): 7.5 µM

SMILES: COc1cc(NC(C(=O)c2c[nH]c3cc(OC)c(F)cc23)c2ccc(F)cc2OC)cc(OCCO)c1 (single isomer, unassigned) [Compound 7A, 2-(4-fluoro-2-methoxyphenyl)-1-(5-fluoro-6-methoxy-1H-indol-3-yl)-2-((3-(2-hydroxyethoxy)-5-methoxyphenyl)amino)ethanone]
- CC50 at 3 days (in vitro [2]): 3.8 µM
- CC50 (uninfected Vero cells): 18 µM
- CC50 (in vitro [3]): > 8.6 µM

SMILES: COc1cc(NC(C(=O)c2c[nH]c3c(Cl)c(OC)ccc23)c2ccc(F)cc2OC)cc(OCCO)c1 (single isomer, unassigned) [Compound 8A, 1-(7-chloro-6-methoxy-1H-indol-3-yl)-2-(4-fluoro-2-methoxyphenyl)-2-((3-(2-hydroxyethoxy)-5-methoxyphenyl)amino)ethanone]
- CC50 at 3 days (in vitro [2]): 10 µM

SMILES: COc1cc(NC(C(=O)c2c[nH]c3c(C)cc(F)cc23)c2ccc(F)cc2OC)cc(OCCO)c1 (single isomer, unassigned) [Compound 9B, 2-(4-fluoro-2-methoxyphenyl)-1-(5-fluoro-7-methyl-1H-indol-3-yl)-2-((3-(2-hydroxyethoxy)-5-methoxyphenyl)amino)ethanone]
- CC50 at 3 days (in vitro [2]): 3.8 µM
- CC50 (uninfected Vero cells): 14 µM

SMILES: COc1cc(NC(C(=O)c2c[nH]c3cc(F)c(F)cc23)c2ccc(F)cc2OC)cc(OCCO)c1 (single isomer, unassigned) [Compound 10B, 1-(5,6-difluoro-1H-indol-3-yl)-2-(4-fluoro-2-methoxy-phenyl)-2-((3-(2-hydroxyethoxy)-5-methoxyphenyl)amino)ethanone]
- CC50 (uninfected Vero cells): 11 µM

SMILES: COc1cc(NC(C(=O)c2c[nH]c3c(C)c(OC)ccc23)c2ccc(F)cc2OC)cc(OCCO)c1 (single isomer, unassigned) [Compound 11A, 2-(4-fluoro-2-methoxyphenyl)-2-((3-(2-hydroxyethoxy)-5-methoxyphenyl)amino)-1-(6-methoxy-7-methyl-1H-indol-3-yl)ethanone]
- CC50 at 3 days (in vitro [2]): 6.3 µM
- CC50 (uninfected Vero cells): 12 µM

SMILES: COc1cc(NC(C(=O)c2c[nH]c3c(F)cc(C)cc23)c2ccc(F)cc2OC)cc(OCCO)c1 (single isomer, unassigned) [Compound 12B, 2-(4-fluoro-2-methoxyphenyl)-1-(7-fluoro-5-methyl-1H-indol-3-yl)-2-((3-(2-hydroxyethoxy)-5-methoxyphenyl)amino)ethanone]
- CC50 at 3 days (in vitro [2]): 5 µM
- CC50 (uninfected Vero cells): 14 µM
